# Counter-ions that a name gives are not always drawn.
# Target: T1, CCR2 (Homo sapiens, UniProt P41597)
# T1 construct: host or cells: THP-1 (human monocytic cell line)
# T1 sequence (P41597 1-360 isoform P41597-2): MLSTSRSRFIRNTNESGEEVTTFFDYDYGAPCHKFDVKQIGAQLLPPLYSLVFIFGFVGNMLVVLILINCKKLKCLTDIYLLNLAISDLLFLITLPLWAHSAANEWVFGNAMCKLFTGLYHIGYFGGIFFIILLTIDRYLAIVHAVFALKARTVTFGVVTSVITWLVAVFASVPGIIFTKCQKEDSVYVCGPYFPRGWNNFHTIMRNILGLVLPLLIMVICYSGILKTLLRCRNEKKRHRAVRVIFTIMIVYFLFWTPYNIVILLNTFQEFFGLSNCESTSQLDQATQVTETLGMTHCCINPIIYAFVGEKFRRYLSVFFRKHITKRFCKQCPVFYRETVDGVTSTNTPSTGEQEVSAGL
# Experiment: MCP-1 Receptor Binding Assay in THP-1 Cells (125I labeled MCP-1)
# Conditions: 0.5 nM 125I labeled MCP-1, 2 hours at 30° C., read-out: Inhibition of MCP-1 Binding IC50, CCR2 Binding
# Description: Compounds of the invention were subjected to various representative biological tests. […] MCP-1 Receptor Binding Assay in THP-1 Cells
# Human monocytic cell line THP-1 cells were obtained from American Type Culture Collection (Manassas, Va., USA). […] The cell density was maintained […].
# 1 μM cold MCP-1 was used for nonspecific binding.
row,IC50,Structure (SMILES)
1,0.11 µM,"COc1ccc(C2(F)CCC(N3CC(NC(=O)CNC(=O)c4cccc(C(F)(F)F)c4)C3)CC2)cn1 (single isomer, unassigned) [Example 64a, N-({1-[4-Fluoro-4-(6-methoxy-pyridin-3-yl)-cyclohexyl]-azetidin-3-ylcarbamoyl}-methyl)-3-trifluoromethyl-benzamide]"
2,0.21 µM,"COc1ncccc1C1CCC(N2CC(NC(=O)CNC(=O)c3cccc(C(F)(F)F)c3)C2)CC1 (stereo not drawn) [Example 2, N-({1-[4-(2-Methoxy-pyridin-3-yl)-cyclohexyl]-azetidin-3-ylcarbamoyl}-methyl)-3-trifluoromethyl-benzamide]"
3,0.024 µM,"O=C(CNC(=O)c1cccc(C(F)(F)F)c1)NC1CN(C2CCC(c3ncccc3O)CC2)C1 (stereo not drawn) [Example 3, N-({1-[4-(3-Hydroxy-pyridin-2-yl)-cyclohexyl]-azetidin-3-ylcarbamoyl}-methyl)-3-trifluoromethyl-benzamide]"
4,0.013 µM,"O=C(CNC(=O)c1cccc(C(F)(F)F)c1)NC1CN(C2CCC(c3ccc(O)cn3)CC2)C1 (stereo not drawn) [Example 4, N-({1-[4-(5-Hydroxy-pyridin-2-yl)-cyclohexyl]-azetidin-3-ylcarbamoyl}-methyl)-3-trifluoromethyl-benzamide hemisuccinate salt]"
5,0.26 µM,"O=C(CNC(=O)c1cccc(C(F)(F)F)c1)NC1CN(C2CCC(c3cncc(O)c3)CC2)C1 (stereo not drawn) [Example 5, N-({1-[4-(5-Hydroxy-pyridin-3-yl)-cyclohexyl]-azetidin-3-ylcarbamoyl}-methyl)-3-trifluoromethyl-benzamide]"
6,0.05 µM,"Cc1ccc(O)c(C2CCC(N3CC(NC(=O)CNC(=O)c4cccc(C(F)(F)F)c4)C3)CC2)n1 (stereo not drawn) [Example 6, N-({1-[4-(3-Hydroxy-6-methyl-pyridin-2-yl)-cyclohexyl]-azetidin-3-ylcarbamoyl}-methyl)-3-trifluoromethyl-benzamide]"
7,0.032 µM,"COc1cc(C2CCC(N3CC(NC(=O)CNC(=O)c4cccc(C(F)(F)F)c4)C3)CC2)ccn1 (stereo not drawn) [Example 7, N-({1-[4-(2-Methoxy-pyridin-4-yl)-cyclohexyl]-azetidin-3-ylcarbamoyl}-methyl)-3-trifluoromethyl-benzamide]"
8,0.025 µM,"COc1cnccc1C1CCC(N2CC(NC(=O)CNC(=O)c3cccc(C(F)(F)F)c3)C2)CC1 (stereo not drawn) [Example 8, N-({1-[4-(3-Methoxy-pyridin-4-yl)-cyclohexyl]-azetidin-3-ylcarbamoyl}-methyl)-3-trifluoromethyl-benzamide]"
9,0.052 µM,"O=C(CNC(=O)c1cccc(C(F)(F)F)c1)NC1CN(C2CCC(c3ccncc3O)CC2)C1 (stereo not drawn) [Example 9, N-({1-[4-(3-Hydroxy-pyridin-4-yl)-cyclohexyl]-azetidin-3-ylcarbamoyl}-methyl)-3-trifluoromethyl-benzamide]"
10,0.97 µM,"O=C(CNC(=O)c1cccc(C(F)(F)F)c1)NC1CN(C2CCC(c3cccnc3O)CC2)C1 (stereo not drawn) [Example 10, N-({1-[4-(2-Hydroxy-pyridin-3-yl)-cyclohexyl]-azetidin-3-ylcarbamoyl}-methyl)-3-trifluoromethyl-benzamide]"
11,0.46 µM,"O=C(CNC(=O)c1cccc(C(F)(F)F)c1)NC1CN(C2CCC(c3cnccc3O)CC2)C1 (stereo not drawn) [Example 11, N-({1-[4-(4-Hydroxy-pyridin-3-yl)-cyclohexyl]-azetidin-3-ylcarbamoyl}-methyl)-3-trifluoromethyl-benzamide]"
12,> 25 µM,"O=C(CNC(=O)c1cccc(C(F)(F)F)c1)NC1CN(C2CCC(c3cc(O)ccn3)CC2)C1 (stereo not drawn) [Example 12, N-({1-[4-(4-Hydroxy-pyridin-2-yl)-cyclohexyl]-azetidin-3-ylcarbamoyl}-methyl)-3-trifluoromethyl-benzamide]"
13,0.09 µM,"CC(=O)Nc1ccc(C2CCC(N3CC(NC(=O)CNC(=O)c4cccc(C(F)(F)F)c4)C3)CC2)nc1 (stereo not drawn) [Example 13, N-({1-[4-(5-Acetylamino-pyridin-2-yl)-cyclohexyl]-azetidin-3-ylcarbamoyl}-methyl)-3-trifluoromethyl-benzamide]"
14,0.28 µM,"CS(=O)(=O)N(c1ccc(C2CCC(N3CC(NC(=O)CNC(=O)c4cccc(C(F)(F)F)c4)C3)CC2)nc1)S(C)(=O)=O (stereo not drawn) [Example 14, N-({1-[4-(5-bis-{Methanesulfonyl}-amino-pyridin-2-yl)-cyclohexyl]-azetidin-3-ylcarbamoyl}-methyl)-3-trifluoromethyl-benzamide]"
15,0.23 µM,"CS(=O)(=O)Nc1ccc(C2CCC(N3CC(NC(=O)CNC(=O)c4cccc(C(F)(F)F)c4)C3)CC2)nc1 (stereo not drawn) [Example 15, N-({1-[4-(5-Methanesulfonyl-amino-pyridin-2-yl)-cyclohexyl]-azetidin-3-ylcarbamoyl}-methyl)-3-trifluoromethyl-benzamide]"
16,0.095 µM,"O=C(CNC(=O)c1cccc(C(F)(F)F)c1)NC1CN(C2CCC(c3ccc(NC(=O)C(F)(F)F)cn3)CC2)C1 (stereo not drawn) [Example 16, N-[(1-{4-[5-(2,2,2-Trifluoro-acetylamino)-pyridin-2-yl]-cyclohexyl}-azetidin-3-ylcarbamoyl)-methyl]-3-trifluoromethyl-benzamide]"
17,0.92 µM,"O=C(CNC(=O)c1cccc(C(F)(F)F)c1)NC1CN(C2CCC(c3ncccc3NC(=O)C(F)(F)F)CC2)C1 (stereo not drawn) [Example 17, N-[(1-{4-[3-(2,2,2-Trifluoro-acetylamino)-pyridin-2-yl]-cyclohexyl}-azetidin-3-ylcarbamoyl)-methyl]-3-trifluoromethyl-benzamide]"
18,0.38 µM,"CC(=O)Nc1cccnc1C1CCC(N2CC(NC(=O)CNC(=O)c3cccc(C(F)(F)F)c3)C2)CC1 (stereo not drawn) [Example 18, N-({1-[4-(3-Acetylamino-pyridin-2-yl)-cyclohexyl]-azetidin-3-ylcarbamoyl}-methyl)-3-trifluoromethyl-benzamide]"
19,1.9 µM,"CS(=O)(=O)Nc1cccnc1C1CCC(N2CC(NC(=O)CNC(=O)c3cccc(C(F)(F)F)c3)C2)CC1 (stereo not drawn) [Example 19, N-({1-[4-(3-Methanesulfonylamino-pyridin-2-yl)-cyclohexyl]-azetidin-3-ylcarbamoyl}-methyl)-3-trifluoromethyl-benzamide]"
20,0.085 µM,"Nc1ccc(C2CCC(N3CC(NC(=O)CNC(=O)c4cccc(C(F)(F)F)c4)C3)CC2)nc1 (stereo not drawn) [Example 21, N-({1-[4-(5-Amino-pyridin-2-yl)-cyclohexyl]-azetidin-3-ylcarbamoyl}-methyl)-3-trifluoromethyl-benzamide]"
21,0.06 µM,"O=C(CNC(=O)c1cccc(C(F)(F)F)c1)NC1CN(C2CCC(c3cccc(NC(=O)C(F)(F)F)n3)CC2)C1 (stereo not drawn) [Example 24, N-[(1-{4-[6-(2,2,2-Trifluoro-acetylamino)-pyridin-2-yl]-cyclohexyl}-azetidin-3-ylcarbamoyl)-methyl]-3-trifluoromethyl-benzamide]"
22,0.21 µM,"N#CNc1cccc(C2CCC(N3CC(NC(=O)CNC(=O)c4cccc(C(F)(F)F)c4)C3)CC2)n1 (stereo not drawn) [Example 25, N-({1-[4-(6-Cyanoamino-pyridin-2-yl)-cyclohexyl]-azetidin-3-ylcarbamoyl}-methyl)-3-trifluoromethyl-benzamide]"
23,0.84 µM,"CS(=O)(=O)Nc1cccc(C2CCC(N3CC(NC(=O)CNC(=O)c4cccc(C(F)(F)F)c4)C3)CC2)n1 (stereo not drawn) [Example 26, N-({1-[4-(6-Methanesulfonylamino-pyridin-2-yl)-cyclohexyl]-azetidin-3-ylcarbamoyl}-methyl)-3-trifluoromethyl-benzamide]"
24,0.089 µM,"Nc1cccc(C2CCC(N3CC(NC(=O)CNC(=O)c4ccc(F)c(C(F)(F)F)c4)C3)CC2)n1 (stereo not drawn) [Example 28, N-({1-[4-(6-Amino-pyridin-2-yl)-cyclohexyl]-azetidin-3-ylcarbamoyl}-methyl)-4-fluoro-3-trifluoromethyl-benzamide]"
25,1.2 µM,"CNc1ccncc1C1CCC(N2CC(NC(=O)CNC(=O)c3cccc(C(F)(F)F)c3)C2)CC1 (stereo not drawn) [Example 29a, N-({1-[4-(4-Methylamino-pyridin-3-yl)-cyclohexyl]-azetidin-3-ylcarbamoyl}-methyl)-3-trifluoromethyl-benzamide]"
26,10 µM,"CN(C)c1ccncc1C1CCC(N2CC(NC(=O)CNC(=O)c3cccc(C(F)(F)F)c3)C2)CC1 (stereo not drawn) [Example 29b, N-({1-[4-(4-Dimethylamino-pyridin-3-yl)-cyclohexyl]-azetidin-3-ylcarbamoyl}-methyl)-3-trifluoromethyl-benzamide]"
27,0.32 µM,"Nc1cncc(C2CCC(N3CC(NC(=O)CNC(=O)c4cccc(C(F)(F)F)c4)C3)CC2)c1 (stereo not drawn) [Example 32, N-({1-[4-(5-Amino-pyridin-3-yl)-cyclohexyl]-azetidin-3-ylcarbamoyl}-methyl)-3-trifluoromethyl-benzamide]"
28,0.25 µM,"Nc1ccnc(C2CCC(N3CC(NC(=O)CNC(=O)c4cccc(C(F)(F)F)c4)C3)CC2)c1 (stereo not drawn) [Example 33, N-({1-[4-(4-Amino-pyridin-2-yl)-cyclohexyl]-azetidin-3-ylcarbamoyl}-methyl)-3-trifluoromethyl-benzamide]"
29,0.12 µM,"Nc1cccc(C2CCC(N3CC(NC(=O)CNC(=O)c4cc(F)cc(C(F)(F)F)c4)C3)CC2)n1 (stereo not drawn) [Example 34, N-({1-[4-(6-Amino-pyridin-2-yl)-cyclohexyl]-azetidin-3-ylcarbamoyl}-methyl)-3-fluoro-5-trifluoromethyl-benzamide]"
30,0.037 µM,"CCn1cc(C2CCC(N3CC(NC(=O)CNC(=O)c4cccc(C(F)(F)F)c4)C3)CC2)ccc1=O (stereo not drawn) [Example 39a, N-({1-[4-(1-Ethyl-6-oxo-1,6-dihydro-pyridin-3-yl)-cyclohexyl]-azetidin-3-ylcarbamoyl}-methyl)-3-trifluoromethyl-benzamide]"

# Reference: patent US8269015B2, “4-azetidinyl-1-heteroaryl-cyclohexane antagonists of CCR2” (Janssen Pharmaceutica N.V., priority 2009, dated 2012)
